The values that follow come from patent US20250241901A1, “ACTIVATION OF MNRR1 / CHCHD2 AS A THERAPEUTIC TARGET FOR MITOCHONDRIA ASSOCIATED DISORDERS” (Wayne State University, priority 2024, published 2025).

Molecules are shown by their SMILES.

What all share (assay type): cell-based, human
One experiment has as its system PHD3. As to the kind of experiment: PHD3 protein levels in MELAS cybrid cells (immunoblot). To be noted: 10 μM, 24 h. The procedure: FIGS. 14A-14D: PHD3 levels are reduced in MELAS cybrid cells and enhanced by nitazoxanide to increase MNRR1 levels. FIG. 14A: Transcript levels of PHD1, 2, and 3 in MELAS cybrid cells harboring the levels of heteroplasmy shown (data from). FIG. 14B: Protein levels of PHD3 in MELAS cybrid cells with 0% (CL9) and 70% heteroplasmy (DW7). GAPDH was probed as loading control. FIG. 14C: Equal amounts of MELAS cybrid cell lysates, treated with vehicle (DMSO), nitazoxanide, or tizoxanide (10 μM) for 24 h, were separated on an SDS-PAGE gel and probed for PHD1, PHD3, MNRR1, and Tubulin. FIG. 14D: Oxygen consumption measured from MELAS cybrid cells overexpressing PHD1 or PHD3. (n=4 biological replicates, error bars show SE).
Immunoblotting: Immunoblotting was performed as described previously. Cell lysates for immunoblotting were prepared using RIPA buffer (Abcam, Waltham, MA) and included a protease and phosphatase inhibitor cocktail (Sigma, St. Louis, MO). Total protein extracts were obtained by centrifugation at 21,000×g for 30 min at 4° C. The clear supernatants were transferred to new tubes and quantified using the Bradford reagent with BSA as standard (BioRad, Hercules. CA). […] For detection after immunoblotting, the SuperSignal™ West Pico PLUS substrate (ThermoFisher, Waltham, MA) was used to generate chemiluminescence signal, which was detected with X-Ray film (RadTech, Vassar, MI).
In general terms: Immunoblotting shows a protein as a band on a membrane.

The test system of the next experiment is HIF2α. As to the kind of experiment: HIF2α transcript levels (RT-PCR). To be noted: 18S rRNA as housekeeper. The source says:
FIG. 13: RT-PCR for measuring HIF2α levels. 18S rRNA was used as housekeeper for both analyses (n=3 biological replicates).
Real-time polymerase chain reaction (RT-PCR): Total cellular RNA was extracted from MELAS cells with a RNeasy Plus Mini Kit (Qiagen) according to the manufacturer's instructions. Complementary DNA (cDNA) was generated by reverse transcriptase polymerase chain reaction (PCR) using the ProtoScript® II First Strand cDNA Synthesis Kit (New England Biolabs, Ipswich, MA). Transcript levels were measured by real time PCR using SYBR green on an ABI 7500 system. Real-time analysis was performed by the ΔΔ^Ct method. The primers used were MNRR1 forward: 5′-[…]-3′ (SEQ ID NO: 9), reverse: 5′-[…]-3′ (SEQ ID NO: 10); 18s forward: 5′-[…]-3′ (SEQ ID NO: 11), reverse: 5′-[…]-3′ (SEQ ID NO: 12), PHD1(EGLN2) forward: 5′-[…]-3′ (SEQ ID NO: 13), reverse: 3′-TCCTTGGCATCAAAATACC-5′ [32](SEQ ID NO: 14); PHD3(EGLN3) forward 5′-[…]-3′ (SEQ ID NO: 15), reverse: 3′-ATGCAGGTGATGCAGCGA-5′ [33](SEQ ID NO: 16) and HIF2α (EPAS1) forward: 5′-[…]-3′ (SEQ ID NO: 17), reverse: 3′-[…]-5′ (SEQ ID NO: 18).

A further experiment deals with MNRR1 promoter. As to the kind of experiment: Dual luciferase reporter assay with MNRR1 promoter deletions in MELAS cybrid cells. To be noted: 10 μM, 24 h. The procedure:
FIGS. 9A-9E: Nitazoxanide acts by reducing HIF2α levels in MELAS cells. FIG. 9A: Schematic representation of deleted regions of the MNRR1 promoter. FIG. 9B: Dual luciferase reporter assay using the MNRR1 promoter deletions in cells treated with vehicle (DMSO), nitazoxanide, or tizoxanide (10 μM) for 24 h (n=4 biological replicates). FIG. 9C: DNA sequence of region of 800-952 bp in the MNRR1 promoter (SEQ ID NO: 25) highlighting binding sites of the transcription factors shown. FIG. 9D: Transcript levels of HIF2α and HIF1α in MELAS cybrid cells harboring different levels of heteroplasmy (0% to 100%). Data from. FIG. 9E: Protein levels of HIF2α and HIF1α in cybrid cells with 0% (CL9) and 70% MELAS heteroplasmy (DW7) In all figures, * indicates p<0.05, ** indicates p<0.005.
Luciferase reporter assay: Luciferase assays were performed with the dual-luciferase reporter assay kit (Promega). Briefly, cells were lysed in 1× passive lysis buffer (Promega) and 25 μL of lysate was used for assay with a tube luminometer using an integration time of 10 s. Transfection efficiency was normalized with the co-transfected pRL-SV40 Renilla luciferase expression plasmid.
(Reporter assays use an easily measured gene product as a stand-in for the process of interest.)

For a further experiment, the system named is MNRR1. As to the kind of experiment: MNRR1 transcript levels in MELAS cells (RT-PCR). The settings on record: relative to 18S rRNA. Here is the method:
FIGS. 6A-6C: FIG. 6A: Above, Chemical structures of nitazoxanide, its metabolites, and similar compounds. Abbreviations: P4, Phenyl-4-aminosalicylic acid; 4ABA, 4-Aminobenzanilide; 4ASA, 4-Amino salicylic acid; BA, Benzanilide; PBO, Phenyl benzoate; PSA, Phenyl salicylic acid; 2AN, 2-Amino 5-nitrothiazole. Below, Equal amounts of lysates of MELAS cells treated with Vehicle (DMSO) or the various compounds (10 μM) for 24 h were separated on an SDS-PAGE gel and probed for MNRR1 levels. Actin was probed as a loading control and numbers below represent an average and SD of 3 biological replicates. FIGS. 6B-6C: MNRR1 transcript levels are shown relative to 18S rRNA (n=4 biological replicates, error bars represent SE). In all figures, * indicates p<0.05, ** indicates p<0.005.
Real-time polymerase chain reaction (RT-PCR): Total cellular RNA was extracted from MELAS cells with a RNeasy Plus Mini Kit (Qiagen) according to the manufacturer's instructions. Complementary DNA (cDNA) was generated by reverse transcriptase polymerase chain reaction (PCR) using the ProtoScript® II First Strand cDNA Synthesis Kit (New England Biolabs, Ipswich, MA). Transcript levels were measured by real time PCR using SYBR green on an ABI 7500 system. Real-time analysis was performed by the ΔΔ^Ct method. […]

For the molecule `CC(=O)Oc1ccccc1C(=O)Nc1ncc([N+](=O)[O-])s1` [nitazoxanide, Nitazoxanide], the PHD3 protein level entry in the experiment on PHD3 is reported as “increasing”. Moreover, in the experiment on HIF2α, the HIF2α transcript levels entry was “absence of any change”. Also, the “activation of MNRR1 promoter with deletion of the 801-952 region” value in the experiment with MNRR1 promoter is reported as “failed to display activation”. The MNRR1 transcription result in the experiment with MNRR1 is on record as “induced its transcription”.
Consider `O=C(Nc1ncc([N+](=O)[O-])s1)c1ccccc1O` [tizoxanide, Tizoxanide], for which the PHD3 protein level entry in the experiment on PHD3 is “most increased”. Moreover, the HIF2α transcript levels result in the experiment with HIF2α is reported as “absence of any change”. The “activation of MNRR1 promoter with deletion of the 801-952 region” value in the experiment with MNRR1 promoter is reported as “failed to display activation”. Besides, in the experiment with MNRR1, the MNRR1 transcription entry was “induced its transcription”.
